Experimental data published in patent US8124793B2, “Derivatives of ethylene methanedisulfonate as cancer chemotherapeutic agents” (priority 2007, dated 2012).

How the values were obtained:
Format in all cases: cell-based
NCI-H322M = assay: NCI screen, growth of human tumor cells: Non-Small Cell Lung NCI-H322M; conditions: NCI-H322M, 10^−4 molar
Protocol: (§1) In the NCI screening process, each compound was tested and described by a minimum of 60 data points. The test data include, but are not limited to the type of cancer, the molar concentration used in the screen, and the percent growth of the cancer. In some cases, NMR and elemental analysis were used for structural assignment.

UO-31 = assay: NCI screen, growth of human tumor cells: Renal Cancer UO-31; conditions: UO-31 (Renal Cancer), 10^−4 molar
Method in brief: (§2)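 Under the NCI protocol, every compound is profiled with sixty or more data points. Each point ties a cancer type and a molar screening concentration to a percent growth value.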

SF-268 = assay: NCI screen, growth of human tumor cells: CNS Cancer SF-268; conditions: SF-268 (CNS Cancer), 10^−4 molar
Method in brief: as §2

SK-MEL-5 = assay: NCI screen, growth of human tumor cells: Melanoma SK-MEL-5; conditions: SK-MEL-5, 10^−4 molar
Method in brief: as §2

BT-549 = assay: NCI screen, growth of human tumor cells: Breast Cancer BT-549; conditions: BT-549, 10^−4 molar
Method in brief: as §2

OVCAR-3 = assay: NCI screen, growth of human tumor cells: Ovarian Cancer OVCAR-3; conditions: OVCAR-3 (Ovarian Cancer), 10^−4 molar
Method in brief: as §2

HOP-62 = assay: NCI screen, growth of human tumor cells: Non-Small Cell Lung HOP-62; conditions: HOP-62, 10^−4 molar
Method in brief: as §2

786-0 = assay: NCI screen, growth of human tumor cells: Renal Cancer 786-0
Protocol: as §1

HL-60 (TB) = assay: NCI screen, growth of human tumor cells: Leukemia HL-60 (TB); conditions: HL-60 (TB) (Leukemia), 10^−4 molar
Protocol: as §1

MCF7/ADR-RES = assay: NCI screen, growth of human tumor cells: Breast Cancer MCF7/ADR-RES; conditions: MCF7/ADR-RES (Breast Cancer), 10^−4 molar
Method in brief: as §2

MDA-MB-435 = assay: NCI screen, growth of human tumor cells: Breast Cancer MDA-MB-435; conditions: MDA-MB-435, 10^−4 molar
Method in brief: as §2

NCI-H460 = assay: NCI screen, growth of human tumor cells: Non-Small Cell Lung NCI-H460; conditions: NCI-H460 (Non-Small Cell Lung), 10^−4 molar
Method in brief: as §2

MOLT-4 = assay: NCI screen, growth of human tumor cells: Leukemia MOLT-4; conditions: MOLT-4 (Leukemia), 10^−4 molar
Protocol: as §1

MALME-3M = assay: NCI screen, growth of human tumor cells: Melanoma MALME-3M; conditions: MALME-3M, 10^−4 molar
Protocol: as §1

IGROVI = assay: NCI screen, growth of human tumor cells: Ovarian Cancer IGROVI; conditions: IGROVI (Ovarian Cancer), 10^−4 molar
Protocol: as §1

human cancer cells = assay: NCI screen summary over the cancers tested (negative growth of human cancer cells); conditions: cancers with negative growth / cancers tested
Protocol: as §1
The derivatives in the tables are grouped using the same category as in the tables 1-6.

SK-OV-3 = assay: NCI screen, growth of human tumor cells: Ovarian Cancer SK-OV-3; conditions: SK-OV-3 (Ovarian Cancer), 10^−4 molar
Protocol: as §1

SR = assay: NCI screen, growth of human tumor cells: Leukemia SR; conditions: SR
Method in brief: as §2

ACHN = assay: NCI screen, growth of human tumor cells: Renal Cancer ACHN; conditions: ACHN
Method in brief: as §2

COLO205 = assay: NCI screen, growth of human tumor cells: Colon Cancer COLO205; conditions: COLO205, 10^−4 molar
Method in brief: as §2

M14 = assay: NCI screen, growth of human tumor cells: Melanoma M14; conditions: M14, 10^−4 molar
Method in brief: as §2

OVCAR-5 = assay: NCI screen, growth of human tumor cells: Ovarian Cancer OVCAR-5; conditions: OVCAR-5, 10^−4 molar
Protocol: as §1

HCT-116 = assay: NCI screen, growth of human tumor cells: Colon Cancer HCT-116; conditions: HCT-116 (Colon Cancer), 10^−4 molar
Method in brief: as §2

HCC-2998 = assay: NCI screen, growth of human tumor cells: HCC-2998 (listed under Non-Small Cell Lung); conditions: HCC-2998, 10^−4 molar
Protocol: as §1

KM12 = assay: NCI screen, growth of human tumor cells: Colon Cancer KM12; conditions: KM12 (Colon Cancer), 10^−4 molar
Method in brief: as §2

K562 = assay: NCI screen, growth of human tumor cells: Leukemia K562; conditions: K562 (Leukemia), 10^−4 molar
Method in brief: as §2

NCI-H226 = assay: NCI screen, growth of human tumor cells: Non-Small Cell Lung NCI-H226; conditions: NCI-H226 (Non-Small Cell Lung), 10^−4 molar
Method in brief: as §2

EKVX = assay: NCI screen, growth of human tumor cells: Non-Small Cell Lung EKVX; conditions: EKVX (Non-Small Cell Lung), 10^−4 molar
Method in brief: as §2

HCT-15 = assay: NCI screen, growth of human tumor cells: Colon Cancer HCT-15; conditions: HCT-15, 10^−4 molar
Method in brief: as §2

AS49/ATCC = assay: NCI screen, growth of human tumor cells: Non-Small Cell Lung AS49/ATCC; conditions: AS49/ATCC (Non-Small Cell Lung), 10^−4 molar
Protocol: as §1

HT29 = assay: NCI screen, growth of human tumor cells: Colon Cancer HT29; conditions: HT29 (Colon Cancer), 10^−4 molar
Protocol: as §1

U-251 = assay: NCI screen, growth of human tumor cells: CNS Cancer U-251; conditions: U-251 (CNS Cancer), 10^−4 molar
Method in brief: as §2

SF-539 = assay: NCI screen, growth of human tumor cells: CNS Cancer SF-539
Method in brief: as §2

SK-MEL-28 = assay: NCI screen, growth of human tumor cells: Melanoma SK-MEL-28; conditions: SK-MEL-28, 10^−4 molar
Protocol: as §1

SF-295 = assay: NCI screen, growth of human tumor cells: CNS Cancer SF-295
Method in brief: as §2

NCI-H522 = assay: NCI screen, growth of human tumor cells: Non-Small Cell Lung NCI-H522; conditions: NCI-H522, 10^−4 molar
Protocol: as §1

UACC-257 = assay: NCI screen, growth of human tumor cells: Melanoma UACC-257; conditions: UACC-257, 10^−4 molar
Protocol: as §1

DU-145 = assay: NCI screen, growth of human tumor cells: Prostate Cancer DU-145; conditions: DV-145, 10^−4 molar
Method in brief: as §2

CAKI-1 = assay: NCI screen, growth of human tumor cells: Renal Cancer CAKI-1; conditions: CAKI-1 (Renal Cancer), 10^−4 molar
Method in brief: as §2

SN12C = assay: NCI screen, growth of human tumor cells: Renal Cancer SN12C; conditions: SN12C (Renal Cancer), 10^−4 molar
Method in brief: as §2

CCRF-CEM = assay: NCI screen, growth of human tumor cells: Leukemia CCRF-CEM; conditions: CCRF-CEM (Leukemia), 10^−4 molar
Method in brief: as §2

SK-MEL-2 = assay: NCI screen, growth of human tumor cells: Melanoma SK-MEL-2; conditions: SK-MEL-2 (Melanoma), 10^−4 molar
Protocol: as §1

UACC-62 = assay: NCI screen, growth of human tumor cells: Melanoma UACC-62
Method in brief: as §2

OVCAR-4 = assay: NCI screen, growth of human tumor cells: Ovarian Cancer OVCAR-4; conditions: OVCAR-4 (Ovarian Cancer), 10^−4 molar
Method in brief: as §2

RPMI-8226 = assay: NCI screen, growth of human tumor cells: Leukemia RPMI-8226; conditions: RPMI-8226 (Leukemia), 10^−4 molar
Method in brief: as §2

RXF-393 = assay: NCI screen, growth of human tumor cells: Renal Cancer RXF-393; conditions: RXF-393 (Renal Cancer), 10^−4 molar
Method in brief: as §2

MCF 7 = assay: NCI screen, growth of human tumor cells: Breast Cancer MCF 7; conditions: MCF 7 (Breast Cancer), 10^−4 molar
Protocol: as §1

NCI-H23 = assay: NCI screen, growth of human tumor cells: Non-Small Cell Lung NCI-H23; conditions: NCI-H23, 10^−4 molar
Method in brief: as §2

CC1=C(CC2(S(=O)(=O)C(F)(F)F)S(=O)(=O)OCCOS2(=O)=O)C(=O)c2ccccc2C1=O [NSC 720682, ethylene trifluorosulfonyl-(3-methyl-1,4-naphtho-2-quinolyl)-1,1-ethanedisulfonate] was tested, and the “% Growth” value (NCI-H322M) was −97%, the “percent of growth of human tumor cells” value (UO-31) was 29% and the “percent of growth of human tumor cells” value (SF-268) was 1%. For the same molecule, the “% Growth” value (SK-MEL-5) was −91%, the “% Growth” value (BT-549) was −78% and the “percent of growth of human tumor cells” value (OVCAR-3) was −42%. For the same molecule, the “% Growth” value (HOP-62) was −96%, the “% Growth” value (786-0; 786-0, 10^−4 molar) was −20% and the “% Growth” value (786-0; 786-0, 10^−5 molar) was 49%. For the same molecule, the “percent of growth of human tumor cells” value (HL-60 (TB)) was −22%, the “percent of growth of human tumor cells” value (MCF7/ADR-RES) was 1% and the “% Growth” value (MDA-MB-435) was −86%. For the same molecule, the “percent of growth of human tumor cells” value (NCI-H460) was −59%, the “percent of growth of human tumor cells” value (MOLT-4) was −11% and the “% Growth” value (MALME-3M) was −89%. For the same molecule, the “percent of growth of human tumor cells” value (IGROVI) was −18%, the “Percentage of cancers showing negative growth cancers tested” value (human cancer cells; 10^−4 M conc.) was 81% and the “Percentage of cancers showing negative growth cancers tested” value (human cancer cells; 10^−5 M conc.) was 17%. The “percent of growth of human tumor cells” value (SK-OV-3) was 20%, the “% Growth” value (SR; 10^−4 molar) was −14% and the “% Growth” value (SR; 10^−5 molar) was 30%. For the same molecule, the “% Growth” value (ACHN; 10^−4 molar) was −21%, the “% Growth” value (ACHN; 10^−5 molar) was 55% and the “% Growth” value (COLO205) was −88%. For the same molecule, the “% Growth” value (M14) was −90%, the “% Growth” value (OVCAR-5) was −87% and the “percent of growth of human tumor cells” value (HCT-116) was 19%. The “% Growth” value (HCC-2998) was −88%, the “percent of growth of human tumor cells” value (KM12) was 20% and the “percent of growth of human tumor cells” value (K562) was −11%. The “percent of growth of human tumor cells” value (NCI-H226) was −45%, the “percent of growth of human tumor cells” value (EKVX) was −36% and the “% Growth” value (HCT-15) was −72%. For the same molecule, the “percent of growth of human tumor cells” value (AS49/ATCC) was −37%, the “percent of growth of human tumor cells” value (HT29) was −43% and the “percent of growth of human tumor cells” value (U-251) was −36%. For the same molecule, the “% Growth” value (SF-539; SF-539, 10^−4 molar) was −69%, the “% Growth” value (SF-539; SF-539, 10^−5 molar) was 57% and the “% Growth” value (SK-MEL-28) was −85%. For the same molecule, the “% Growth” value (SF-295; SF-295, 10^−4 molar) was −78%, the “% Growth” value (SF-295; SF-295, 10^−5 molar) was 53% and the “% Growth” value (NCI-H522) was −72%. For the same molecule, the “% Growth” value (UACC-257) was −64%, the “% Growth” value (DU-145) was −99% and the “percent of growth of human tumor cells” value (CAKI-1) was 16%. For the same molecule, the “percent of growth of human tumor cells” value (SN12C) was −70%, the “percent of growth of human tumor cells” value (CCRF-CEM) was −5% and the “percent of growth of human tumor cells” value (SK-MEL-2) was −58%. The “% Growth” value (UACC-62; UACC-62, 10^−4 molar) was −73%, the “% Growth” value (UACC-62; UACC-62, 10^−5 molar) was 55% and the “percent of growth of human tumor cells” value (OVCAR-4) was −23%. The “percent of growth of human tumor cells” value (RPMI-8226) was −4%, the “percent of growth of human tumor cells” value (RXF-393) was 24% and the “percent of growth of human tumor cells” value (MCF 7) was 1%. For the same molecule, the “% Growth” value (NCI-H23) was −68%.
